Experiments:
[1] = target: Histamine H3 receptor (Rattus norvegicus) (UniProt Q9QYN8); conditions: Cerebral cortex
[2] = target: Histamine H3 receptor (Cavia porcellus) (UniProt Q9JI35); conditions: Jejunum
[3] = target: Histamine H1 receptor (Cavia porcellus) (UniProt P31389); conditions: Jejunum
[4] = target: Histamine H2 receptor (Cavia porcellus) (UniProt P47747); conditions: Cardiac atrium
Histamine H3 receptor = Histamine H3 receptor (Rattus norvegicus, UniProt Q9QYN8); assay: In vitro binding affinity was measured against Histamine H3 receptor on rat cerebral cortex.; type: tissue-based
Chain of Histamine H3 receptor (Q9QYN8 whole entry): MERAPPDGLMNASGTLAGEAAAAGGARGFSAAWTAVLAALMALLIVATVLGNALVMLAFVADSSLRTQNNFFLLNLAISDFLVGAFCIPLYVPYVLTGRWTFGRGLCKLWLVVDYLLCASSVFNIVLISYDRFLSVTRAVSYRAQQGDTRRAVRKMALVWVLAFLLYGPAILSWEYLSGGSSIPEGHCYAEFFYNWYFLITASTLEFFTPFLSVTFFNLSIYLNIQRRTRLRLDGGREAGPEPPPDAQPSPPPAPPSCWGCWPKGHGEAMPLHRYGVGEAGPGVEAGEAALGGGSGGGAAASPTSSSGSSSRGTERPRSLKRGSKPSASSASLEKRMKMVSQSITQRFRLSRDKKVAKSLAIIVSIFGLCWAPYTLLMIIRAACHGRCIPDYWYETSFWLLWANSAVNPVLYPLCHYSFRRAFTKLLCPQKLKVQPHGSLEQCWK

Chain of Histamine H2 receptor (Cavia porcellus) (P47747 whole entry): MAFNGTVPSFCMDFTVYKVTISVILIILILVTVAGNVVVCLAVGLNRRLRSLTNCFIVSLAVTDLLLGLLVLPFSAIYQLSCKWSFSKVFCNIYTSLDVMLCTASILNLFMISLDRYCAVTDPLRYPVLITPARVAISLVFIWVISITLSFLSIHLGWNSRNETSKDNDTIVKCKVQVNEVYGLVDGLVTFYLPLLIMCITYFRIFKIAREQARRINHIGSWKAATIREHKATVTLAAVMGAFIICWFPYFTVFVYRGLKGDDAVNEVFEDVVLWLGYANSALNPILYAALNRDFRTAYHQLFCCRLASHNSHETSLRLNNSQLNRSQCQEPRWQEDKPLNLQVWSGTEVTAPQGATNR
Chain of Histamine H3 receptor (Rattus norvegicus) (Q9QYN8 whole entry): as the sequence (Q9QYN8 whole entry) above
Chain of Histamine H1 receptor (Cavia porcellus) (P31389 whole entry): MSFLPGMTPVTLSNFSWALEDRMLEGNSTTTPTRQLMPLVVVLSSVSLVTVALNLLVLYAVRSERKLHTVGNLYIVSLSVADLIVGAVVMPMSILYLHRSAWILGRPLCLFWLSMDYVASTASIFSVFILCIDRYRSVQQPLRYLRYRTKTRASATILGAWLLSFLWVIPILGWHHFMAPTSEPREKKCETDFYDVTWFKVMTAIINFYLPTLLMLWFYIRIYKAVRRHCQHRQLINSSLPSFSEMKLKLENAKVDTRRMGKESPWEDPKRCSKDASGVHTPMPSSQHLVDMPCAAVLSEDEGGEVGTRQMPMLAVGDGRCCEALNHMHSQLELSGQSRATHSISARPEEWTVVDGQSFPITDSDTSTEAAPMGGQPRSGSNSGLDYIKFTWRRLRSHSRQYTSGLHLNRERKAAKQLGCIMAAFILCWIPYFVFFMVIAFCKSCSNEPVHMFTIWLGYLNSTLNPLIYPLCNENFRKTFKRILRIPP
Chain of Histamine H3 receptor (Cavia porcellus) (Q9JI35 whole entry): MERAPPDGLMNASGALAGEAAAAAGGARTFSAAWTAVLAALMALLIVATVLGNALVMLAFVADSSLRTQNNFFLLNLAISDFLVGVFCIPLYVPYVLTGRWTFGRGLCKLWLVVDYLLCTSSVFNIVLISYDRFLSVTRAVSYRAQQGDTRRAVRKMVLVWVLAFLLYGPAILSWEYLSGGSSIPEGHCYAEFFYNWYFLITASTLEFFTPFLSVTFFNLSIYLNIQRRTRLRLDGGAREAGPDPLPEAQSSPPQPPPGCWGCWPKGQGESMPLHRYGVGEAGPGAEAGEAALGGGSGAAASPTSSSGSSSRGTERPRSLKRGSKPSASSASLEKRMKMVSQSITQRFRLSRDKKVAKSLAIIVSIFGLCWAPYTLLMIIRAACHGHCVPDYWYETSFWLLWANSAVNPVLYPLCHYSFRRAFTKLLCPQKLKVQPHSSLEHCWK

NCCc1c[nH]cn1
pD2 [1]: 7.4 | pD2 [2]: 7.4 | pD2 [3]: 6.6 | pD2 [4]: 6.1

N[C@@H]1C[C@H]1c1c[nH]cn1
pD2 [1]: 5.75 | pD2 [2]: 6.15 | pD2 [3]: 4.5 | pD2 [4]: 4.9

N[C@H]1C[C@@H]1c1c[nH]cn1 [VUF-5297]
Ki (Histamine H3 receptor): 1.74 nM | pD2 [1]: 7.08 | pD2 [2]: 6.64 | pD2 [3]: 5 | pD2 [4]: 4.8

N[C@@H]1C[C@H]1c1cnc[nH]1 [VUF-5296]
Ki (Histamine H3 receptor): 25.1 nM

Source: ChEMBL document CHEMBL1132619 (J Med Chem, 1999)
